Reference: the NIST ThermoML archive (doi:10.1021/je200195q)
± gives the expanded uncertainty stated by the source.

Experiment: activity coefficient (dimensionless); of the first substance listed, at infinite dilution; xn = mol fraction of the nth substance listed
Conditions: 101 kPa, Liquid, Chromatography, x1 = 0

Question: For `CCCC(C)=O` [pentan-2-one] + CCCCCC[n+]1ccn(C)c1.FC(F)(F)C(F)(F)[P-](F)(F)(F)(C(F)(F)C(F)(F)F)C(F)(F)C(F)(F)F, which activity coefficient (312.8 K) is on record?
Answer: The activity coefficient was 0.271 ± 0.03.

Question: And the activity coefficient (332.85 K)?
Answer: Its activity coefficient is 0.298 ± 0.031.

Question: What about the activity coefficient (354.65 K) of the same compound?
Answer: Its activity coefficient is 0.311 ± 0.031.

Question: For `C1COCCO1` [1,4-dioxane] + CCCCn1cc[n+](C)c1.O=S(=O)([N-]S(=O)(=O)C(F)(F)C(F)(F)F)C(F)(F)C(F)(F)F, which activity coefficient (322.55 K) is on record?
Answer: Its activity coefficient is 0.429 ± 0.035.

Question: And the activity coefficient (342.75 K)?
Answer: Its activity coefficient is 0.607 ± 0.042.

Question: And the activity coefficient (362.65 K)?
Answer: Its activity coefficient is 0.576 ± 0.041.

Question: For `CCC(C)=O` [butanone] + CCCCCC[n+]1ccn(C)c1.FC(F)(F)C(F)(F)[P-](F)(F)(F)(C(F)(F)C(F)(F)F)C(F)(F)C(F)(F)F, which activity coefficient (312.8 K) is on record?
Answer: Its activity coefficient is 0.204 ± 0.029.

Question: And the activity coefficient (332.85 K)?
Answer: Its activity coefficient is 0.195 ± 0.029.

Question: And the activity coefficient (354.65 K)?
Answer: The activity coefficient was 0.171 ± 0.029.

Question: For `CCC(=O)CC` [pentan-3-one] + CCCCCCCCCCn1cc[n+](CCCCCCCCCC)c1C.O=S(=O)([N-]S(=O)(=O)C(F)(F)F)C(F)(F)F, which activity coefficient (323.1 K) is on record?
Answer: Its activity coefficient is 0.37 ± 0.03.

Question: And the activity coefficient (333.15 K)?
Answer: The activity coefficient was 0.378 ± 0.033.

Question: What about the activity coefficient (343.15 K) of the same compound?
Answer: The activity coefficient was 0.386 ± 0.033.

Question: Which activity coefficient (312.8 K) does the source give for `CCC=O` [propanal] + CCCCCC[n+]1ccn(C)c1.FC(F)(F)C(F)(F)[P-](F)(F)(F)(C(F)(F)C(F)(F)F)C(F)(F)C(F)(F)F here?
Answer: The activity coefficient was 0.274 ± 0.03.

Question: And the activity coefficient (332.85 K)?
Answer: Its activity coefficient is 0.283 ± 0.03.

Question: And the activity coefficient (354.65 K)?
Answer: The activity coefficient was 0.285 ± 0.031.

Question: For `CCO` [ethanol] + CCn1cc[n+](C)c1.CS(=O)(=O)[O-], which activity coefficient (312.55 K) is on record?
Answer: The activity coefficient was 0.438 ± 0.035.

Question: What about the activity coefficient (322.45 K) of the same compound?
Answer: The activity coefficient was 0.418 ± 0.035.

Question: What about the activity coefficient (332.45 K) of the same compound?
Answer: The activity coefficient was 0.405 ± 0.034.

Question: Which activity coefficient (322.55 K) does the source give for `CCCCCC` [hexane] + CCCCn1cc[n+](C)c1.O=S(=O)([N-]S(=O)(=O)C(F)(F)C(F)(F)F)C(F)(F)C(F)(F)F here?
Answer: The activity coefficient was 9.49 ± 0.65.

Question: What about the activity coefficient (342.75 K) of the same compound?
Answer: The activity coefficient was 8.8 ± 0.6.

Question: And the activity coefficient (362.65 K)?
Answer: The activity coefficient was 8.43 ± 0.57.

Question: For `CCC[N+](=O)[O-]` [1-nitropropane] + CCCCCCCCCCn1cc[n+](CCCCCCCCCC)c1C.O=S(=O)([N-]S(=O)(=O)C(F)(F)F)C(F)(F)F, which activity coefficient (323.1 K) is on record?
Answer: The activity coefficient was 0.504 ± 0.038.

Question: What about the activity coefficient (333.15 K) of the same compound?
Answer: The activity coefficient was 0.487 ± 0.037.

Question: And the activity coefficient (343.15 K)?
Answer: The activity coefficient was 0.479 ± 0.037.

Question: With `CCN(CC)CC` [triethylamine] + CCCCn1cc[n+](C)c1.O=S(=O)([N-]S(=O)(=O)C(F)(F)C(F)(F)F)C(F)(F)C(F)(F)F as the compound, how does the activity coefficient (322.55 K) read?
Answer: The activity coefficient was 2.73 ± 0.19.

Question: What about the activity coefficient (342.75 K) of the same compound?
Answer: Its activity coefficient is 3.61 ± 0.25.

Question: And the activity coefficient (362.65 K)?
Answer: Its activity coefficient is 3.27 ± 0.22.

Question: Which activity coefficient (312.55 K) does the source give for `CC(C)O` [propan-2-ol] + CCn1cc[n+](C)c1.CS(=O)(=O)[O-] here?
Answer: The activity coefficient was 0.924 ± 0.058.

Question: What about the activity coefficient (322.45 K) of the same compound?
Answer: Its activity coefficient is 0.907 ± 0.058.

Question: What about the activity coefficient (332.45 K) of the same compound?
Answer: The activity coefficient was 0.877 ± 0.056.

Question: Which activity coefficient (312.55 K) does the source give for `CCC[N+](=O)[O-]` [1-nitropropane] + CCn1cc[n+](C)c1.CS(=O)(=O)[O-] here?
Answer: The activity coefficient was 4.19 ± 0.28.

Question: What about the activity coefficient (322.45 K) of the same compound?
Answer: The activity coefficient was 2.7 ± 0.18.

Question: And the activity coefficient (332.45 K)?
Answer: The activity coefficient was 1.73 ± 0.12.

Question: With `C=O` [methanal] + CCn1cc[n+](C)c1.CS(=O)(=O)[O-] as the compound, how does the activity coefficient (312.55 K) read?
Answer: Its activity coefficient is 0.615 ± 0.043.

Question: What about the activity coefficient (322.45 K) of the same compound?
Answer: Its activity coefficient is 0.656 ± 0.045.

Question: And the activity coefficient (332.45 K)?
Answer: The activity coefficient was 0.691 ± 0.046.

Question: What does the source list for `ClCCl` [dichloromethane] + CCCCCC[n+]1ccn(C)c1.FC(F)(F)C(F)(F)[P-](F)(F)(F)(C(F)(F)C(F)(F)F)C(F)(F)C(F)(F)F?
Answer: activity coefficient (312.8 K): 0.66 ± 0.045; activity coefficient (332.85 K): 0.699 ± 0.047; activity coefficient (354.65 K): 0.707 ± 0.047

Question: For `c1ccsc1` [thiophene] + CCCCn1cc[n+](C)c1.O=S(=O)([N-]S(=O)(=O)C(F)(F)C(F)(F)F)C(F)(F)C(F)(F)F, which activity coefficient (322.55 K) is on record?
Answer: Its activity coefficient is 0.977 ± 0.061.

Question: What about the activity coefficient (342.75 K) of the same compound?
Answer: The activity coefficient was 0.973 ± 0.061.

Question: And the activity coefficient (362.65 K)?
Answer: The activity coefficient was 0.981 ± 0.062.

Question: What does the source list for `C#CCCCCC` [1-heptyne] + CCCCCCCCCCn1cc[n+](CCCCCCCCCC)c1C.O=S(=O)([N-]S(=O)(=O)C(F)(F)F)C(F)(F)F?
Answer: activity coefficient (323.1 K): 1.06 ± 0.067; activity coefficient (333.15 K): 1.06 ± 0.067; activity coefficient (343.15 K): 1.06 ± 0.067

Question: Which activity coefficient (323.1 K) does the source give for `C=CCCCC` [hex-1-ene] + CCCCCCCCCCn1cc[n+](CCCCCCCCCC)c1C.O=S(=O)([N-]S(=O)(=O)C(F)(F)F)C(F)(F)F here?
Answer: The activity coefficient was 1.39 ± 0.091.

Question: What about the activity coefficient (333.15 K) of the same compound?
Answer: Its activity coefficient is 1.38 ± 0.09.

Question: What about the activity coefficient (343.15 K) of the same compound?
Answer: Its activity coefficient is 1.36 ± 0.089.

Question: Which results are given for `CCCCCCCCCCCC` [dodecane] + CCCCCC[n+]1ccn(C)c1.FC(F)(F)C(F)(F)[P-](F)(F)(F)(C(F)(F)C(F)(F)F)C(F)(F)C(F)(F)F?
Answer: activity coefficient (312.8 K): 39.3 ± 2.7; activity coefficient (332.85 K): 33.1 ± 2.3; activity coefficient (354.65 K): 25.7 ± 1.8

Question: Which activity coefficient (312.55 K) does the source give for `CCCCCCC` [heptane] + CCn1cc[n+](C)c1.CS(=O)(=O)[O-] here?
Answer: The activity coefficient was 432 ± 30.

Question: What about the activity coefficient (322.45 K) of the same compound?
Answer: The activity coefficient was 2230 ± 150.

Question: And the activity coefficient (332.45 K)?
Answer: Its activity coefficient is 497 ± 34.

Question: With `Cc1ccccc1C` [1,2-dimethylbenzene] + CCCCCCCCCCn1cc[n+](CCCCCCCCCC)c1C.O=S(=O)([N-]S(=O)(=O)C(F)(F)F)C(F)(F)F as the compound, how does the activity coefficient (323.1 K) read?
Answer: The activity coefficient was 0.626 ± 0.043.

Question: What about the activity coefficient (333.15 K) of the same compound?
Answer: The activity coefficient was 0.616 ± 0.043.

Question: What about the activity coefficient (343.15 K) of the same compound?
Answer: Its activity coefficient is 0.603 ± 0.042.

Question: Which results are given for `OCC(F)(F)F` [2,2,2-trifluoroethanol] + CCCCn1cc[n+](C)c1.O=S(=O)([N-]S(=O)(=O)C(F)(F)C(F)(F)F)C(F)(F)C(F)(F)F?
Answer: activity coefficient (322.55 K): 0.457 ± 0.036; activity coefficient (342.75 K): 0.412 ± 0.034; activity coefficient (362.65 K): 0.373 ± 0.033
